From ChEMBL document CHEMBL1795326, “Pharmacophore based virtual screening, molecular docking studies to design potent heat shock protein 90 inhibitors” (Eur J Med Chem, 2011) come the findings set out here.

The experiment can be described thus: Inhibition of HSP90.

Structures are written as SMILES.

Turning to `Cc1nc(N)nc2c1/C(=N/O)C[C@@H](c1ccc(F)cc1-c1cccnc1)C2`, the IC50 (commonly the concentration that inhibits the measured activity by half) is 30 µM.
On to `CCOC(=O)NCc1ccc(-n2cnnc2-c2cc(C(C)C)c(O)cc2O)cc1`, for which inhibition was half-maximal at 40 µM (IC50).
Next, `Oc1ccc2c(-c3cc(Br)c(O)cc3O)noc2c1`: 190 µM; `Cc1ccccc1[C@H]1CCCN1C(=O)c1ccc(O)cc1O`: 60 µM.
